From PubChem BioAssay (NCI)
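96-well plates; 48 h exposure; 5 concentrations. Endpoints by linear interpolation between flanking doses. Not reached: highest tested concentration assigned. GI50 = concentration required for 50% inhibition of growth. TGI is the concentration that stops growth completely.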

Key:
Experiment in all cases: DTP human tumour cell line panel, 48 h
[1] = tested on: HOP-92 NSCLC
[2] = tested on: SNB-19 CNS
[3] = tested on: PC-3 prostate
[4] = tested on: A549 NSCLC
[5] = tested on: OVCAR-5 ovarian
[6] = tested on: NCI-H226 lung
[7] = tested on: MOLT-4 leukemia
[8] = tested on: NCI-H522 lung
[9] = tested on: IGROV1 ovarian
[10] = tested on: UO-31 renal
[11] = tested on: HCC-2998 colon
[12] = tested on: U251 CNS
[13] = tested on: EKVX NSCLC
[14] = tested on: NCI-H460 lung
[15] = tested on: M14 melanoma
[16] = tested on: T-47D breast
[17] = tested on: BT-549 breast
[18] = tested on: COLO 205 colon
[19] = tested on: SF-539 CNS
[20] = tested on: SF-268 CNS
[21] = tested on: UACC-257 melanoma
[22] = tested on: NCI/ADR-RES ovarian
[23] = tested on: OVCAR-3 ovarian
[24] = tested on: MDA-MB-231 breast
[25] = tested on: HT29 colon
[26] = tested on: UACC-62 melanoma
[27] = tested on: SK-OV-3 ovarian
[28] = tested on: TK-10 renal
[29] = tested on: SK-MEL-28 melanoma

## COC1CC2CCC(C)C(O)(O2)C(=O)C(=O)N2CCCCC2C(=O)OC(C(C)CC2CCC(O)C(OC)C2)CC(=O)C(C)C=C(C)C(O)C(OC)C(=O)C(C)CC(C)/C=C/C=C/C=C1C (stereo unspecified)
[1]
  GI50: 0.0107 µM
  TGI: 7.48 µM
[2]
  GI50: 1.45 µM
  TGI: 17 µM
[3]
  GI50: < 0.005 µM
  TGI: 13 µM
[4]
  GI50: 0.0784 µM
  TGI: 41.6 µM
[5]
  GI50: 6.41 µM
  TGI: 14.3 µM
[6]
  GI50: < 0.005 µM
  TGI: 9.71 µM
[7]
  GI50: 0.0787 µM
  TGI: 13.9 µM
[8]
  GI50: 1.99 µM
  TGI: 11.3 µM
[9]
  GI50: < 0.005 µM
  TGI: 11.8 µM
[10]
  GI50: < 0.005 µM
  TGI: 8.08 µM
[11]
  GI50: 0.263 µM
  TGI: 11.4 µM
[12]
  GI50: 0.0523 µM
  TGI: 10 µM
[13]
  GI50: < 0.005 µM
  TGI: 13.7 µM
[14]
  GI50: < 0.005 µM
  TGI: 11.5 µM
[15]
  GI50: 5.41 µM
  TGI: 13.3 µM
[16]
  GI50: < 0.005 µM
  TGI: 20.9 µM
[17]
  GI50: 0.00609 µM
  TGI: 11 µM
[18]
  GI50: 5.64 µM
  TGI: 12.9 µM
[19]
  GI50: < 0.005 µM
  TGI: 11 µM
[20]
  GI50: 3.82 µM
  TGI: 11.5 µM
[21]
  GI50: 4.46 µM
  TGI: 12.5 µM
[22]
  GI50: 1.86 µM
  TGI: 30.3 µM
[23]
  GI50: 4.49 µM
  TGI: 10.9 µM
[24]
  GI50: 4.32 µM
  TGI: 12.9 µM
[25]
  TGI: 10.8 µM
[26]
  GI50: 0.0265 µM
  TGI: 11.6 µM
[27]
  GI50: < 0.005 µM
  TGI: 10.7 µM
[28]
  GI50: 5.62 µM
  TGI: 19.7 µM
[29]
  GI50: 3.23 µM
